Test results as given in US20160324149A1, “ADJUVANTS FOR PLANT GROWTH REGULATORS” (VERDESIAN LIFE SCINCES, LLC, priority 2014, published 2016).

System: soybean seedlings
Assay: Soybean seedling spray test, dry weight one week later
Assay type: in vivo
Conditions: for Mean Plant Dry Wt. / Total Dry Wt.: sprayed at 20 gallons per acre, harvested one week later
Method: In this test, soybean seedlings at true leaf emergence were sprayed with a series of aqueous test solutions at a rate of 20 gallons per acre. In those solutions including AVAIL®, use was made of AVAIL® for liquid phosphate fertilizers. The beans were then harvested one week later and were counted, dried, and weighed, and average weight per plant was determined.

C=C1C[C@]23C[C@@]1(O)CC[C@H]2[C@@]12C=C[C@H](O)[C@@](C)(C(=O)O1)[C@H]2[C@@H]3C(=O)O [gibberellic acid]
Mean plant dry weight as gibberellic acid concentration increased (50-500 ppm): the mean plant dry weight also increased | Mean Plant Dry Wt. (50 ppm gibberellic acid): 1.594 g | Total Dry Wt. (50 ppm gibberellic acid): 17.53 g | Mean Plant Dry Wt. (100 ppm gibberellic acid): 1.808 g | Total Dry Wt. (100 ppm gibberellic acid): 18.08 g | Mean Plant Dry Wt. (250 ppm gibberellic acid): 1.718 g | Total Dry Wt. (250 ppm gibberellic acid): 20.61 g | Mean Plant Dry Wt. (500 ppm gibberellic acid): 2.280 g | Total Dry Wt. (500 ppm gibberellic acid): 22.80 g
